Patent US10561638B2, “Methods for treating dependence” (Biotie Therapies, Inc., priority 2007, dated 2020)
Entries after “also recorded” stand apart in the source; their conditions may differ.

Experiments:
[1] = in vivo
Description: The pharmacokinetics of nepicastat after a single 40 mg dose was compared in men and women.

[2] = test system: MPTP-lesioned squirrel monkey; test: MPTP-lesioned squirrel monkey Parkinsonian model; assay type: in vivo, squirrel monkeys
Description: Twenty four squirrel monkeys, fourteen females and ten males were used in a Parkinsonian model. The twenty-four animals were randomly assigned to one of four treatment groups, with 6 animals per group. The groups consisted of the following: Group A (6 animals) received placebo (water) treatment; Group B (5 animals) received drug nepicastat at 1 mg/kg/day (0.5 mg/kg twice daily); Group C (6 animals) received 4 mg/kg/day (2 mg/kg twice daily); and Group D (6 animals) received 10 mg/kg/day (5 mg/kg twice daily). In Group B, one animal died acutely following MPTP-lesioning, and was not replaced.
Prior to lesioning, animals were subjected to quantitative assessment of spontaneous motor activity using an infrared activity monitor (IRAM) cage. All recording sessions were 60 minutes in length and were carried out for 10 sessions over a period of 2 weeks. The behavior of animals was also assessed by 1 to 3 clinical raters using a parkinsonian clinical rating scale (CRS) once per day (12 noon to 1 pm) for 3 to 5 consecutive days. […] Both the activity monitoring (IRAM) and clinical rating assessments established the mean base-line activity of each animal.
Animals were lesioned by the administration of MPTP at a concentration of 2.0 mg/kg (free-base) via subcutaneous injection to achieve a parkinsonian state. A post-MPTP lesioning behavioral assessment was carried out 2 to 4 weeks after the last MPTP-lesioning. Locomotor activity was monitored by IRAM in 60-minute sessions for 3 to 5 days. Clinical behavior (CAS) was assessed by one to three individuals rating over a period of 3 to 5 days.
Animals were tested for response to L-Dopa and the efficacy of drug nepicastat. Testing was carried out 4 to 12 weeks after the last MPTP dose. L-Dopa was administered at a concentration of either 2.5, 5, or 7.5 mg/kg by oral gavage twice daily (at 10 am and 2 pm) for 7 consecutive days. Behavior was determined by IRAM and CRS. Clinical rating was carried out 60 to 90 minutes following the 10 am morning dose on the last 4 days of treatment. Raters (one to three individuals) were blinded to the different treatment groups. IRAM assessment were preformed for 90 minutes immediately following drug administration at 2 pm on the last 2 to 5 days of drug treatment. There was a minimum 2 day washout period between each treatment dose.
Nepicastat or water (as placebo) was administered for 12 days following a minimum 2 day washout after L-Dopa dosing. Drug was administered twice daily at 10 am and 2 pm by oral gavage. Behavior was rated by IRAM and CRS. The CRS was conducted in the morning, 60 to 90 minutes after the 10 am dose of nepicastat on the last 5 days of drug treatment. Raters (one to three individuals) were blinded to the different treatment groups. IRAM assessments were preformed for 90 minutes immediately following drug administration at 2 pm on the last 5 days of drug treatment.
Eight parkinsonian features were rated in each animal and the total score was derived from the sum of these eight features. For each animal, a single clinical rating score was obtained for each drug dose by averaging the clinical rating scores of all raters (one to three) conducted over the consecutive multiple dosing (with the same dose) days. This average CRS was used for statistical analysis. A lower score was considered a less parkinsonian behavioral state.
Statistical analysis consisted of: (1) comparisons between the average CRS of placebo to nepicastat at 1, 4, and 10 mg/kg/day using the Kruskal-Wallis (non-parametric analysis of variance). This comparison was repeated using the average CRS for each experimental drug concentration corrected by the final post-MPTP ratings for each animal. The corrected clinical scores are clinical scores of experimental drug at each concentration as a ratio of post-MPTP clinical scores. […]

serum T3 and T4 levels = test: Thyroid function (serum T3, T4) in iodine-deficient rats; assay type: in vivo, Sprague-Dawley rats; conditions: for reduction in serum T3 / reduction in serum T4: 1 mg/kg po b.i.d.; for effect on serum T3 and T4 levels: methimazole 1 mg/kg b.i.d. (2 mg/kg/d)
Description: Since the heterocyclic portion of nepicastat is structurally similar to methimazole, a known potent suppressor of mammalian thyroid function, the effects of nepicastat on thyroid function were evaluated at doses of 2.0 and 6.2 mg/kg, po, b.i.d in iodine-deficient Sprague-Dawley rats (n=9-12) for 10 days.
Male Sprague-Dawley rats, weighing 180-200 grams, were fed an iodine deficient diet (Purina, 5891C, Lot 1478, 0.066±0.042 mg iodine/kg sample) ad libitum 14 days prior to treatment. Animals were weighed and randomly assigned to one of the following treatment groups (n=12 per group): nepicastat at 2.0 mg/kg, nepicastat at 6.2 mg/kg, Methimazole at 1 mg/kg, or vehicle at 1 ml/kg. Each group of rats was dosed orally in the evening and the following morning, approximately 12 hours apart, for 10 consecutive days.
Orbital blood samples were taken at day −3, 0, 3, 7, and 9 (day 0 was the first day of dosing). Serum samples were analyzed for T3 and T4 levels using a radioimmunoassay.
To statistically evaluate changes in T3 and T4 levels, a change from baseline was calculated from the day −3 time point. A non-parametric two-way within subject analysis of variance (ANOVA) was conducted. Also a one-way ANOVA was performed to detect if a significant difference from control occurred. Pairwise analyses between controls and each treatment group were carried out using Fisher's LSD strategy to control the experiment-wise error rate. For statistical analysis of catecholamine levels, a one-way ANOVA with factor DOSE was performed. Pairwise analyses between treated and controls at each dose were carried out using Fisher's LSD strategy to control the experiment-wise error rate.

[3] = Pilot observation studies in rats, acute and repeated oral administration
Description: Similarly, in a separate study, physostigmine (1, 3, 10 or 30 mg/kg p.o.) or vehicle were administered acutely to groups of 8 rats.
In pilot studies of repeated administration, nepicastat (100 mg/kg p.o.) or vehicle was administered twice daily (06:00 and 18:00 h) for 10 days (once on day 11) to groups of 8 rats. The weights of the animals were monitored throughout the study and, on day 5, the animals were observed ‘blind’ by an independent observer in order to assess any overt behavioural/physiological effects following repeated administration. In a separate study, groups of 8 rats received vehicle or physostigmine (0.3, 1, 3 or 10 mg/kg p.o.) using the same dosing schedule. The weights of the animals were monitored throughout the study.

[4] = test system: short-term or working memory in rats; test: Delayed-matching-to-position (DMTP) test; assay type: in vivo, Sprague Dawley rats
Description: In the present DMTP study, rats were trained to remember the position of a lever across a scheduled delay of either 0, 8, 16 or 32 s in order to earn food reward. […] Another group of rats received only vehicle treatment throughout the experiment. […] The dependent measures in the present study included percentage of correct choices, the latency to make choice responses and the number of trials which the animals were able to complete during the 70 min test sessions. Changes in the former measure may indicate changes in memory and/or attentional function whereas changes in the latter two measures may be indicative of other non-cognitive effects of the drugs. Matching to position training began next. This and all subsequent training was conducted with the partitions fitted into the operant boxes. The sessions were initially 50 minutes long. Rats were placed in the operant box and the session began when the houselight was illuminated. Following a 30 s intertrial interval (ITI), one of the two levers (the sample lever) was inserted into the chamber. The lever remained inserted into the chamber until a lever-press response occurred. […] As soon as the magazine flap was pressed the magazine light was extinguished and both levers were inserted. […] The magazine light remained on until the flap was pressed. […] A 30 s ITI was initiated before the commencement of a new trial. The lever inserted as the sample lever was semi-randomly determined such that the right and lefthand levers were presented as the sample lever 8 times in a block of 16 trials. Following 24 sessions, the animals were performing the matching to position task with a high degree of accuracy. On Session 25 a variable delay interval was interposed between the depression of the sample lever and presentation of the levers on the choice trial. After a response to the sample lever, the choice levers were inserted following the first flap press occurring after either a 0 s (immediate), 4, 8 or 16 s delay. The order of the four types of trials (0, 4, 8 or 16 s delay) was semi-randomly determined with the constraint that in a 16 trial block, each delay occurred 4 times; twice on a left trial and twice on a right trial. […] The same trial was reinstated following the end of the ITI. From Session 25 onward the time-out period following incorrect choices was omitted and the session length was increased to 70 minutes. […] Due to poor performance at the 64 s delay, however, this delay was not used in any further sessions. On Session 59, delays of 0, 8, 16 and 32 s were used. These delays were used in all subsequent sessions. Only 51 of the 56 rats completed more than 24 trials (correction plus non-correction) during Session 59. These rats were selected and semi-randomly assigned to the following 7 groups such that the groups were matched on performance (percent correct, response latency and number of trials completed): […] Thus, the drug treatments administered to the seven groups during the 11 consecutive days of the present experiment were: The data collected and analyzed in the present DMTP study include 1) the percentage of correct responses; 2) the latency between performance of a response to the sample lever and the performance of the choice response and 3) the total number of correction and non-correction trials completed. The former two dependent measures were collected for the non-correction trials only. […] Two-way analysis of variance (ANOVA) with drug treatment as the between-subjects factor and delay (0, 8, 16 or 32 s) as the within-subjects factor was used to analyze percentage of correct choices and response latency. These analyses were conducted separately for each block of data. Significant interactions were followed by a one-way ANOVA which was conducted at each delay. A significant main effect from a one-way ANOVA was followed by a two-tailed Dunnett's t-test. One-way ANOVA followed by a post hoc Dunnett's test, when appropriate, was used to analyze the mean number of trials completed. […]

## CC(=O)NCc1c[nH]c(=S)n1[C@H]1CCc2c(F)cc(F)cc2C1 [N-acetyl metabolite of nepicastat]
[1]
  Cmax and AUC of the N-acetyl metabolite, slow vs fast acetylators: much lower in the slow acetylators

## N[C@@H](Cc1ccc(O)c(O)c1)C(=O)O [L-Dopa, reference compound]
[2]; L-Dopa 2.5 mg/kg
  parkinsonian clinical rating vs post-MPTP: No groups of animals demonstrated significant improvement; also recorded: no significant effect
[2]; L-Dopa 5 and 7.5 mg/kg, except Group C at 7.5 and Group B at 5 mg/kg
  parkinsonian clinical rating vs post-MPTP (pre-treatment): significant improvement; also recorded: significant effect

## Cn1cc[nH]c1=S [methimazole]
Serum T3 and T4 levels; day 3, 4 h post-dose
  reduction in serum T3: 31%
  reduction in serum T4: 46%
Serum T3 and T4 levels; day 7, 4 h post-dose
  reduction in serum T3: 42%
  reduction in serum T4: 58%
Serum T3 and T4 levels; day 9, 4 h post-dose
  reduction in serum T3: 44%
Serum T3 and T4 levels
  effect on serum T3 and T4 levels: significantly reduced
Serum T3 and T4 levels; listed as Methimazole
  effect on serum T3 and T4 levels: significantly (p<0.05) lowered
Serum T3 and T4 levels; methimazole 1.0 mg/kg, day nine
  T4 levels vs vehicle: marginally (p<0.10) lower

## CNC(=O)Oc1ccc2c(c1)[C@]1(C)CCN(C)[C@@H]1N2C [physostigmine, Physostigmine sulphate, reference compound]
[3]; physostigmine 3 mg/kg p.o.
  convulsions on repeated administration: 2 of 8 animals convulsed on day 5
[3]; physostigmine 10 mg/kg p.o.
  mortality on repeated administration: 3 of 8 animals were found dead on day 2
[3]; physostigmine 30 mg/kg p.o.
  acute toxicity: Signs of toxicity were observed
[3]; physostigmine 0.3 or 1 mg/kg
  effects of repeated administration: no effects
[3]; physostigmine p.o.
  acute doses inducing overt behavioural effects: ≥ 3 mg/kg
[4]; Block 2
  all dependent measures: no significant effects on any of the dependent measures
[4]; Block 3, physostigmine 1.0 mg/kg b.i.d.
  choice accuracy: delay-independent impairment in choice accuracy
[4]; Block 5
  response latency, number of trials completed: did not significantly affect
[4]; administered alone, 10 days
  improvement of DMTP performance: did not improve performance
[4]; day 11 scopolamine test
  reversal of the effects of scopolamine: did not appear to reverse the effects of scopolamine
